Reference: patent US8722623B2, “Compositions and methods utilizing fibrin beta chain fragments” (University of Maryland, Baltimore, priority 2007, dated 2014)
Entries after “also recorded” stand apart in the source; their conditions may differ. No end group written: not given here.

Columns and labels:
[1] = system: leukocyte (neutrophil) migration into the peritoneum; experiment: Thioglycollate-induced in vivo peritonitis model of leukocyte migration; parameters: species or system mouse; settings: for leukocyte migration / number of leukocytes accumulating in the peritoneum: peptide i.v. prior to i.p. thioglycollate, peritoneal lavage at 4 h, versus PBS control; for inhibition of leukocyte infiltration and migration compared to β15-42: (β15-66)2 8.6 mg/kg, (β15-44)2 5.1 mg/kg
Experimental: We compared their anti-inflammatory effects in an in vivo peritonitis model, a well established mouse model for leukocyte migration into sites of acute inflammation. In this model, leukocyte migration from the circulation into the peritoneum was stimulated by intraperitoneal (i.p.) injection of thioglycollate, and leukocyte (neutrophil) accumulation was evaluated after 4 hours by measuring the cell number in the peritoneal lavage.
Leukocyte (e.g., neutrophil) infiltration is a hallmark of injury associated with ischemia and reperfusion, as well as a number of other inflammatory conditions. Therefore, peptides of the invention are tested to determine the ability to decrease leukocyte infiltration in vivo. The ability to inhibit leukocyte infiltration was tested in an in vivo model of peritonitis, which is a well established mouse model for leukocyte infiltration and migration into sites of inflammation. The protocol for this animal model is described as below. Experiments were performed consistent with accepted practice (see, for example, Bosse et al. 1994. Eur. J. Immunol. 24: 3019; Borges et al. 1997. Blood 90: 1934; US Patent Application Publication No. 20030105020). To induce peritonitis, thioglycollate was administered intraperitoneally (i.p.) to mice. For inhibition studies, mice were injected intravenously (i.v.) with either β15-42, (β15-44)2, or (β15-66)2 prior to i.p. injection of thioglycollate (FIG. 4). Control mice were treated with the same volume of PBS. All reagents are kept endotoxin-free. At 4 h after injection of thioglycollate, mice were sacrificed and the peritoneal lavage was generated by, for example, injecting 10 ml PBS, massaging the peritoneal wall, and removing the fluid. Following the peritoneal lavage, leukocytes were quantified (e.g., neutrophil quantification determined using a hemocytometer).

ischemic myocardium = experiment: Coronary artery ligation mouse model of myocardial infarction (ischemia and reperfusion); assay type: in vivo; settings: MI mice, i.v., about 16 nanomoles
Text: To confirm the ability of (β15-66)2, (β15-44)2, (β15-40)2, (β15-35)2, and β15-42 to protect (with the former peptides showing increased protection over β15-42) against injury following ischemia and reperfusion an animal model of myocardial infarction (MI) is employed. The effect of the β15-42, (β15-66)2, (β15-44)2, (β15-40)2, and (β15-35)2 (and other fibrin beta chain derived peptides of the invention) on the protection and infiltration and migration of leukocytes into the ischemic myocardium is determined by, for example, using a coronary artery ligation mouse model of MI. To determine the efficacy of these peptides to protect against injury and inhibit leukocyte infiltration and migration into the myocardium following ischemia a fibrin beta chain derived peptide is administered (for example, at a dose of about 16 nanomoles, which can be adjusted accordingly to determine efficacy) i.v. into 8-12 week-old C57BL6 mice (20 to 25 g), for example, prior to left anterior descending (LAD) coronary artery ligation, upon reperfusion, or after reperfusion. Mice injected with PBS are used as controls. […] Administration can be adjusted based on, for example, pharmacodynamic and pharmacokinetic properties.
The study may comprise at least 7 different groups: sham-operated control (group #1), MI mice with no treatment (group #2), and MI mice treated with β15-42 (group #3), (β15-66)2 (group #4), (β15-44)2 (group #5), (β15-40)2 (group #6), and (β15-35)2 (group #7). To ensure objectivity, these experiments are conducted in a double-blind and placebo-controlled manner. Thus, β15-42, (β15-66)2, (β15-44)2, (β15-40)2, (β15-35)2, and PBS are assigned randomly to a reference number, which is blinded to the personnel involved in conducting the surgery and performing post-surgery analysis. […] Leukocyte infiltration into the ischemic myocardium is determined by H&E staining and cardiomyocyte apoptosis is determined by TdT-mediated dUTP Nick-End Labeling (TUNEL) staining. […]

VE-cadherin [2] = experiment: Surface plasmon resonance binding of peptides to immobilized VE-cadherin fragment; settings: for affinity to VE-cadherin (in words): comparison between peptides; for binding to VE-cadherin: added at 400 nM
Experimental: To test binding activities of fibrin beta chain derived peptides of the invention to VE-caherin, surface plasmon resonance (SPR) methods are, for example, used. SPR experiments are performed using, for example, a BIAcore 3000 biosensor (BIAcore AB, Uppsala, Sweden), which can be used to measure the association/dissociation of peptides or proteins in real-time (see, for example, Karlsson, R., and Falt, A. J. Immunol. Methods (1997) 200, 121-133; Hall, D. Anal. Biochem. (2001) 288, 109-125; see also Gorlatov et al. Biochemistry (2002) 41, 4107-4116 for other VE-cadherin binding assays including, for example, SPR IAsys Analysis based assays and ELISA based assays). An exemplary method is described in the following passage. VE-cadherin fragment is covalently coupled via epsilon-amino groups to the activated surface of a CM5 biosensor chip by the procedure described by, for example, Karlsson, R., and Falt, A. (J. Immunol. Methods (1997) 200, 121-133; see also Gorlatov et al. Biochemistry (2002) 41, 4107-4116). Briefly, the carboxyl groups on the sensor surface were activated with an injection of a solution containing, for example, 0.2 M N-ethyl-N-(3-diethylamino-propyl) carbodiimide and 0.05 M N-hydroxysuccinimide. VE-cadherin to be coupled is prepared in 10 mM sodium-acetate buffer, pH 4.0, containing 1 mM CaCl2, and injected onto the activated CM5 surface at 5 mL/min followed by incubation for 7 min after which the surface was deactivated by passing 1 M ethanolamine. Activation time, ligand concentration, and contact time are adjusted to achieve a coupling density of 5-6 ng/mm2. Binding experiments are performed, for example, in 10 mM Hepes buffer, pH 7.4, containing 200 mM NaCl, 1 mM CaCl2, 0.02% NaN3, and 0.05% n-octyl beta-D-glucopyranoside (binding buffer). Samples comprising, for example, fibrin beta chain derived peptides β15-42, β15-64, and (β15-66)2, at different concentrations are injected in duplicate in at least three separate experiments and the association/dissociation between the immobilized and the added peptides is monitored as the change in the SPR response. To regenerate the chip, complete dissociation of the complex was achieved by adding, for example, 20 mM Tris buffer, pH 7.5, containing 0.5 M urea, 0.5 M NaCl, and 0.5% Triton X-100, for 1 min following reequilibration with binding buffer. Experimental data are analyzed using, for example, BIAevaluation 3.0 software supplied with the instrument. Briefly, kinetic constants, kass and kdis, are estimated by global analysis of the association/dissociation curves to the 1:1 Langmurian interaction model (Morton, T. A., and Myszka, D. G. Methods Enzymol. (1998) 295, 268-294). The dissociation equilibrium constant (Kd) is calculated as Kd=kdiss/kass. It is also noted that other methods known to one of ordinary skill in the art can be used to determine binding activities of fibrin beta chain derived peptides of the invention to VE-caherin including, for example, ELISA-based methods (see, for example, Gorlatov et al. Biochemistry (2002) 41, 4107-4116).

[3] = system: myocardial ischemia-reperfusion injury; settings: acute or chronic rat models; cited from earlier work
VE-cadherin [4] = target: T1, VE-cadherin (Homo sapiens, UniProt P33151); settings: cited from earlier work
T1 sequence (P33151 48-784): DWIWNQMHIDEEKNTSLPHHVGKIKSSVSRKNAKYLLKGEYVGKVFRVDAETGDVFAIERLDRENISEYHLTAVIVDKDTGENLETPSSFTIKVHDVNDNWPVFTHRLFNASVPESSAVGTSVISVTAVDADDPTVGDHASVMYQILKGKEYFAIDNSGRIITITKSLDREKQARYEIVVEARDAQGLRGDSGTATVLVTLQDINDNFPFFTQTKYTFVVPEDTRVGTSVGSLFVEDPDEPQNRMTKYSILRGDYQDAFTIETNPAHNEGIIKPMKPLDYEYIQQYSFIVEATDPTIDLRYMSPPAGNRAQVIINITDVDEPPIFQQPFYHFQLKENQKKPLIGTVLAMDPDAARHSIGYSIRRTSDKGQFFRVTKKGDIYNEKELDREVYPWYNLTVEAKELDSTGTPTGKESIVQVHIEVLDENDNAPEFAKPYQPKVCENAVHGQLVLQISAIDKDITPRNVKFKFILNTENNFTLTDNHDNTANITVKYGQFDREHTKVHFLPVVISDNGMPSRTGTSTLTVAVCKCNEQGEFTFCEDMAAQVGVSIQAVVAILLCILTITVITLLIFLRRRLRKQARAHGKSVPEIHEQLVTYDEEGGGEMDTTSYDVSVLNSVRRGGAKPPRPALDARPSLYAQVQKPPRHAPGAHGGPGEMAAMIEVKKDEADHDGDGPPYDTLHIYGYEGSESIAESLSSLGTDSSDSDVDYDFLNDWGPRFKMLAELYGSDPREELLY

Substance | leukocyte migration / number of leukocytes accumulating in the peritoneum [1] | inhibition of leukocyte infiltration and migration compared to β15-42 ([1]; peritonitis model, 4 h) | efficacy compared to β15-42 (ischemic myocardium) | affinity to VE-cadherin (in words) (VE-cadherin [2]) | binding to VE-cadherin (VE-cadherin [2]) | also measured
thymosin β4 (SDKPDMAEIEKFDKSKLKKTETQEKNPLPSKETIEQEKQAGES; Thymosin beta-4; UniProt P62328 2-44, looked up) [TB4] | inhibits leukocyte migration |  |  |  |  | 
(β15-40)2: dimer; monomer GHRPLDKKREEAPSLRPAPPPISYCG (SEQ ID NO:6) (GHRPLDKKREEAPSLRPAPPPISYCG; also: disulfide-linked homodimer) |  | even further inhibit leukocyte infiltration and migration | increased efficacy | even higher affinity |  | 
(β15-44)2: synthetic dimer; monomer GHRPLDKKREEAPSLRPAPPPISGGGYRCG (SEQ ID NO:5), Cys43-Cys43 disulfide bond (GHRPLDKKREEAPSLRPAPPPISGGGYRCG; also: Cys43-Cys43 disulfide homodimer) | inhibits leukocyte migration | almost twice as much | increased efficacy | comparable to that of (β15-66)2; also recorded: even higher affinity |  | number of leukocytes compared to β15-44 ([1]; peritonitis model, 4 h): decrease in the number of leukocytes; inhibitory effect on leukocyte transmigration compared to (β15-66)2 ([1]; peritonitis model, FIG. 4): superior
β15-42: peptide which includes amino acid residues 15-42 of the fibrin β chain (GHRPLDKKREEAPSLRPAPPPISGGGYR) [reference compound] | significantly lower; also recorded: inhibits leukocyte migration |  |  | weak | very little binding | myocardial inflammation and infarct size [3]: substantially reduced; competition with fibrin for the interaction with VE-cadherin (VE-cadherin [4]): competes with fibrin for the interaction with VE-cadherin
β15-64: monomeric fibrin β chain residues 15-64 (fibrin βN-domain) [reference compound] |  |  |  |  | very little binding | 
(β15-35)2: dimer; monomer GHRPLDKKREEAPSLRPAYCG (SEQ ID NO:7) (GHRPLDKKREEAPSLRPAYCG; also: disulfide-linked homodimer) |  | even further inhibit leukocyte infiltration and migration | increased efficacy | even higher affinity |  | affinity to VE-cadherin compared to both (β15-44)2 and (β15-40)2 (VE-cadherin [2]; FIG. 3): unexpectedly higher degree of affinity
